Organism: Rattus norvegicus
Assay: DrugMatrix - Regimen: Daily Repeat
Format: toxicity, organism-based, Sprague-Dawley
Parameters: regimen Daily Repeat, gender Male, age 6-8 weeks
Conditions: in vivo, po, 750 mg/kg, route oral GAVAGE, dose level High, vehicle .5 % CMC; for BASOPHIL / EOSINOPHIL / ERYTHROCYTE COUNT / HEMATOCRIT / HEMOGLOBIN / LEUKOCYTE COUNT / LYMPHOCYTE / MEAN CORPUSCULAR HEMOGLOBIN / MEAN CORPUSCULAR HEMOGLOBIN CONCENTRATION / MEAN CORPUSCULAR VOLUME / MONOCYTE / NEUTROPHIL / PLATELET COUNT: tissue Blood; for ALANINE AMINOTRANSFERASE / ALBUMIN / ALKALINE PHOSPHATASE / ASPARTATE AMINOTRANSFERASE / BLOOD UREA NITROGEN / CARBON DIOXIDE / CHLORIDE / CHOLESTEROL / CREATINE PHOSPHOKINASE / CREATININE / GLUCOSE / LACTATE DEHYDROGENASE / LIPASE / PHOSPHORUS / POTASSIUM / SODIUM / TOTAL BILIRUBIN / TOTAL PROTEIN / URIC ACID: tissue Plasma

ClC(Cl)(Cl)C(Cl)(Cl)Cl [HEXACHLOROETHANE] was tested, and the BASOPHIL (96 h, time 4 day) was 0.3%, the EOSINOPHIL (96 h, time 4 day) was 0.6% and the “ERYTHROCYTE COUNT” value (96 h, time 4 day) was 7.16 x10E6/uL. For the same molecule, the HEMATOCRIT (96 h, time 4 day) was 45.77%, the HEMOGLOBIN (96 h, time 4 day) was 14.9 G/DL and the “LEUKOCYTE COUNT” value (96 h, time 4 day) was 12.35 x10E3/uL. For the same molecule, the LYMPHOCYTE (96 h, time 4 day) was 79.87%, the “MEAN CORPUSCULAR HEMOGLOBIN” value (96 h, time 4 day) was 20.77 pg and the “MEAN CORPUSCULAR HEMOGLOBIN CONCENTRATION” value (96 h, time 4 day) was 32.5 G/DL. For the same molecule, the “MEAN CORPUSCULAR VOLUME” value (96 h, time 4 day) was 63.9 fL, the MONOCYTE (96 h, time 4 day) was 2.47% and the NEUTROPHIL (96 h, time 4 day) was 16.1%. The “PLATELET COUNT” value (96 h, time 4 day) was 1434.33 x10E3/uL, the “ALANINE AMINOTRANSFERASE” value (96 h, time 4 day) was 28 u/L and the ALBUMIN (96 h, time 4 day) was 3.87 G/DL. The “ALKALINE PHOSPHATASE” value (96 h, time 4 day) was 292 u/L, the “ASPARTATE AMINOTRANSFERASE” value (96 h, time 4 day) was 63.67 u/L and the “BLOOD UREA NITROGEN” value (96 h, time 4 day) was 17.67 mg/dL. The “CARBON DIOXIDE” value (96 h, time 4 day) was 21.67 mmol/L, the CHLORIDE (96 h, time 4 day) was 108.33 MEQ/L and the CHOLESTEROL (96 h, time 4 day) was 74.67 mg/dL. The “CREATINE PHOSPHOKINASE” value (96 h, time 4 day) was 242 u/L, the CREATININE (96 h, time 4 day) was 0.43 mg/dL and the GLUCOSE (96 h, time 4 day) was 177 mg/dL. For the same molecule, the “LACTATE DEHYDROGENASE” value (96 h, time 4 day) was 82 u/L, the LIPASE (96 h, time 4 day) was 19 u/L and the PHOSPHORUS (96 h, time 4 day) was 11.57 mg/dL. For the same molecule, the POTASSIUM (96 h, time 4 day) was 5.67 MEQ/L, the SODIUM (96 h, time 4 day) was 150 MEQ/L and the “TOTAL BILIRUBIN” value (96 h, time 4 day) was 0.23 mg/dL. For the same molecule, the “TOTAL PROTEIN” value (96 h, time 4 day) was 6.5 G/DL, the “URIC ACID” value (96 h, time 4 day) was 1.17 mg/dL and the BASOPHIL ([…], time 6 day) was 0.4%. For the same molecule, the EOSINOPHIL ([…], time 6 day) was 0.57%, the “ERYTHROCYTE COUNT” value ([…], time 6 day) was 7.65 x10E6/uL and the HEMATOCRIT ([…], time 6 day) was 47.3%. The HEMOGLOBIN ([…], time 6 day) was 15.03 G/DL, the “LEUKOCYTE COUNT” value ([…], time 6 day) was 11.09 x10E3/uL and the LYMPHOCYTE ([…], time 6 day) was 86.53%. For the same molecule, the “MEAN CORPUSCULAR HEMOGLOBIN” value ([…], time 6 day) was 19.67 pg, the “MEAN CORPUSCULAR HEMOGLOBIN CONCENTRATION” value ([…], time 6 day) was 31.77 G/DL and the “MEAN CORPUSCULAR VOLUME” value ([…], time 6 day) was 61.9 fL. The MONOCYTE ([…], time 6 day) was 1.6%, the NEUTROPHIL ([…], time 6 day) was 10.43% and the “PLATELET COUNT” value ([…], time 6 day) was 1317.33 x10E3/uL. The BASOPHIL ([…], time 14 day) was 0.38%, the EOSINOPHIL ([…], time 14 day) was 1.98% and the “ERYTHROCYTE COUNT” value ([…], time 14 day) was 8.11 x10E6/uL. The HEMATOCRIT ([…], time 14 day) was 53.9%, the HEMOGLOBIN ([…], time 14 day) was 15.78 G/DL and the “LEUKOCYTE COUNT” value ([…], time 14 day) was 13.93 x10E3/uL. The LYMPHOCYTE ([…], time 14 day) was 77.98%, the “MEAN CORPUSCULAR HEMOGLOBIN” value ([…], time 14 day) was 19.5 pg and the “MEAN CORPUSCULAR HEMOGLOBIN CONCENTRATION” value ([…], time 14 day) was 29.3 G/DL. For the same molecule, the “MEAN CORPUSCULAR VOLUME” value ([…], time 14 day) was 66.52 fL, the MONOCYTE ([…], time 14 day) was 1.82% and the NEUTROPHIL ([…], time 14 day) was 17.32%. The “PLATELET COUNT” value ([…], time 14 day) was 1210 x10E3/uL, the “ALANINE AMINOTRANSFERASE” value ([…], time 6 day) was 38.33 u/L and the ALBUMIN ([…], time 6 day) was 3.9 G/DL. The “ALKALINE PHOSPHATASE” value ([…], time 6 day) was 248.33 u/L, the “ASPARTATE AMINOTRANSFERASE” value ([…], time 6 day) was 85.33 u/L and the “BLOOD UREA NITROGEN” value ([…], time 6 day) was 17 mg/dL. For the same molecule, the “CARBON DIOXIDE” value ([…], time 6 day) was 24 mmol/L, the CHLORIDE ([…], time 6 day) was 109.67 MEQ/L and the CHOLESTEROL ([…], time 6 day) was 81 mg/dL. For the same molecule, the “CREATINE PHOSPHOKINASE” value ([…], time 6 day) was 545 u/L, the CREATININE ([…], time 6 day) was 0.33 mg/dL and the GLUCOSE ([…], time 6 day) was 171.67 mg/dL. The “LACTATE DEHYDROGENASE” value ([…], time 6 day) was 134.33 u/L, the LIPASE ([…], time 6 day) was 4.67 u/L and the PHOSPHORUS ([…], time 6 day) was 12.5 mg/dL. The POTASSIUM ([…], time 6 day) was 7.1 MEQ/L, the SODIUM ([…], time 6 day) was 619.67 MEQ/L and the “TOTAL BILIRUBIN” value ([…], time 6 day) was 0.23 mg/dL. For the same molecule, the “TOTAL PROTEIN” value ([…], time 6 day) was 6.6 G/DL, the “URIC ACID” value ([…], time 6 day) was 1.57 mg/dL and the “ALANINE AMINOTRANSFERASE” value ([…], time 14 day) was 49.8 u/L. For the same molecule, the ALBUMIN ([…], time 14 day) was 4.38 G/DL, the “ALKALINE PHOSPHATASE” value ([…], time 14 day) was 322.6 u/L and the “ASPARTATE AMINOTRANSFERASE” value ([…], time 14 day) was 75 u/L. For the same molecule, the “BLOOD UREA NITROGEN” value ([…], time 14 day) was 15.6 mg/dL, the “CARBON DIOXIDE” value ([…], time 14 day) was 27.6 mmol/L and the CHLORIDE ([…], time 14 day) was 104.8 MEQ/L. The CHOLESTEROL ([…], time 14 day) was 84.4 mg/dL, the “CREATINE PHOSPHOKINASE” value ([…], time 14 day) was 289.2 u/L and the CREATININE ([…], time 14 day) was 0.42 mg/dL. For the same molecule, the GLUCOSE ([…], time 14 day) was 153.6 mg/dL, the “LACTATE DEHYDROGENASE” value ([…], time 14 day) was 57.2 u/L and the LIPASE ([…], time 14 day) was 7.2 u/L. For the same molecule, the PHOSPHORUS ([…], time 14 day) was 13.42 mg/dL, the POTASSIUM ([…], time 14 day) was 6.7 MEQ/L and the SODIUM ([…], time 14 day) was 151.4 MEQ/L. For the same molecule, the “TOTAL BILIRUBIN” value ([…], time 14 day) was 0.34 mg/dL, the “TOTAL PROTEIN” value ([…], time 14 day) was 7.08 G/DL and the “URIC ACID” value ([…], time 14 day) was 1.5 mg/dL.

Source: ChEMBL document CHEMBL3885881, “DrugMatrix”
